Test results reported in patent publication US20240317744A1, “Bicyclic Ureas As Kinase Inhibitors” (Incyte Corporation, priority 2023, published 2024).
pIC50: −log10 of the molar value.

Legend:
[1] = target: catalytic domain (JH1, amino acids 808-1132) of human JAK2 (Homo sapiens, UniProt O60674); experiment: JAK2 HTRF Enzyme Activity Assay; assay type: biochemical; conditions: ATP 30 µM, 60 minutes at 25° C.; read-out: V617F ENZ 30 UM
[2] = target: T1, pseudo-kinase domain (JH2, amino-acids 536-812) of human V617F mutant JAK2 (Homo sapiens, UniProt O60674, F794H/V617F/W659A/W777A); experiment: JAK2 LanthaScreen JH2-V617F Binding Assay; conditions: JAK2 JH2-V617F 0.26 nM, 50 nM tracer, 1 hour at 25° C.; read-out: JH2 BIND V617F
T1 construct: pseudo-kinase domain (JH2, amino-acids 536-812 with 3 surface mutations W659A, W777A, F794H); His (C); purchased BPS Bioscience 79498; host or cells: baculovirus expression system
Protocol: Example C. JAK2 LanthaScreen JH2-V617F Binding Assay
JAK2 JH2-V617F binding assay utilizes pseudo-kinase domain (JH2, amino-acids 536-812 with 3 surface mutations W659A, W777A, F794H) of human V617F mutant JAK2 expressed as C-terminal His-Avi-tagged, biotinylated protein in a baculovirus expression system (BPS Bioscience, Catalog #79498). The assay was conducted in black 384-well polystyrene plates in a final reaction volume of 20 μL. JAK2 JH2-V617F (0.26 nM) was incubated with compounds (100 nL serially diluted in DMSO) in the presence of 50 nM Fluorescent JAK2-JH2 Tracer (MedChem Express Catalog #HY-102055) and 0.25 nM Streptavidin-Tb cryptate (Cisbio Part #610SATLB) in assay buffer (50 mM Tris, pH=7.5, 10 mM MgCl2, 0.01% Brij-35, 0.1% BSA, 1 mM EGTA, 5% Glycerol and 5 mM DTT). Non-specific binding was accessed in the presence of 2 mM ATP. After incubation for 1 hour at 25° C., LanthaScreen signals were read on a PHERAstar FS plate reader (BMG LABTECH). Data was analyzed with IDBS XLfit and GraphPad Prism 5.0 software using a four parameter dose response curve to determine IC50 for each compound.

Chain of catalytic domain (JH1, amino acids 808-1132) of human JAK2 (O60674 808-1132 limits assumed): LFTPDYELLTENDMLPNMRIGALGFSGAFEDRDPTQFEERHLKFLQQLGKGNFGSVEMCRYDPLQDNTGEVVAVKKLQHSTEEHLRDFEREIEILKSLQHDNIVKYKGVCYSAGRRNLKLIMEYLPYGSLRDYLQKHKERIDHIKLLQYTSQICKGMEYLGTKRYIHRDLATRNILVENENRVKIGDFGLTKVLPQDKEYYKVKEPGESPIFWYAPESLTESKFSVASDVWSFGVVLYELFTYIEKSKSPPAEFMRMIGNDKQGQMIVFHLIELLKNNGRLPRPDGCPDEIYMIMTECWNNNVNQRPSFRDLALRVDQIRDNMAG
T1 sequence (O60674 536-812 V617F/W659A/W777A/F794H): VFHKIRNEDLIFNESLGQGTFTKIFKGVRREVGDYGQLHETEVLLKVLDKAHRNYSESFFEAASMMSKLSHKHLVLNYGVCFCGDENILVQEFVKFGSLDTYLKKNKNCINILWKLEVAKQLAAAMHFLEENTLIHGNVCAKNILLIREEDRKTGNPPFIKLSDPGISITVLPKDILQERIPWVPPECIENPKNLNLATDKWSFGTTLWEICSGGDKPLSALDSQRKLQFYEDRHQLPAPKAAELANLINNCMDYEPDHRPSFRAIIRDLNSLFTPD

Compound	pIC50 [1]	pIC50 [2]
[2H]C([2H])([2H])n1c(=O)n([C@@H]2CC[C@@H](NC(=O)OC)C2)c2cc(Nc3ccc4nn(CC(C)(C)O)c(-c5cnn(C(F)(F)F)c5)c4n3)ncc21 [Example 122, Methyl ((1R,3R)-3-(6-((2-(2-hydroxy-2-methylpropyl)-3-(1-(trifluoromethyl)-1H-pyrazol-4-yl)-2H-pyrazolo[4,3-b]pyridin-5-yl)amino)-3-(methyl-d3)-2-oxo-2,3-dihydro-1H-imidazo[4,5-c]pyridin-1-yl)cyclopentyl)carbamate]	< 6.00	≥ 8.00
[2H]C([2H])([2H])n1c(=O)n([C@@H]2CC[C@](C)(NC(=O)C3CC3)C2)c2cc(Nc3ccc4nn(CC(C)(C)O)c(-c5cnn(C(F)(F)F)c5)c4n3)ncc21 [Example 123, N-((1S,3R)-3-(6-((2-(2-Hydroxy-2-methylpropyl)-3-(1-(trifluoromethyl)-1H-pyrazol-4-yl)-2H-pyrazolo[4,3-b]pyridin-5-yl)amino)-3-(methyl-d3)-2-oxo-2,3-dihydro-1H-imidazo[4,5-c]pyridin-1-yl)-1-methylcyclopentyl)cyclopropanecarboxamide]	< 6.00	≥ 8.00
[2H]C([2H])([2H])n1c(=O)n([C@H]2CC[C@@](C)(NC(=O)C3CC3)CC2)c2cc(Nc3ccc4c(n3)c(-c3cnn(C(F)(F)F)c3)nn4[C@H]3CC[C@H](O)CC3)ncc21 [Example 126, N-((1s,4s)-4-(6-((1-((1r,4r)-4-Hydroxycyclohexyl)-3-(1-(trifluoromethyl)-1H-pyrazol-4-yl)-1H-pyrazolo[4,3-b]pyridin-5-yl)amino)-3-(methyl-d3)-2-oxo-2,3-dihydro-1H-imidazo[4,5-c]pyridin-1-yl)-1-methylcyclohexyl)cyclopropanecarboxamide]	< 6.00	≥ 8.00
[2H]C([2H])([2H])n1c(=O)n([C@H]2CC[C@@](C)(NC(=O)C3CC3)CC2)c2cc(Nc3cc(C(=O)N4CCOCC4)c4nn(C)c(-c5cnn(C(F)(F)F)c5)c4n3)ncc21 [Example 127, N-((1s,4s)-1-Methyl-4-(3-(methyl-d3)-6-((2-methyl-7-(morpholine-4-carbonyl)-3-(1-(trifluoromethyl)-1H-pyrazol-4-yl)-2H-pyrazolo[4,3-b]pyridin-5-yl)amino)-2-oxo-2,3-dihydro-1H-imidazo[4,5-c]pyridin-1-yl)cyclohexyl)cyclopropanecarboxamide]	< 6.00	≥ 8.00
[2H]C([2H])([2H])n1c(=O)n([C@@H]2CC[C@](C)(NC(=O)OC)C2)c2cc(Nc3ccc4c(n3)c(-c3cnn(C(F)(F)F)c3)nn4CC(C)(C)O)ncc21 [Example 128, Methyl ((1S,3R)-3-(6-((1-(2-hydroxy-2-methylpropyl)-3-(1-(trifluoromethyl)-1H-pyrazol-4-yl)-1H-pyrazolo[4,3-b]pyridin-5-yl)amino)-3-(methyl-d3)-2-oxo-2,3-dihydro-1H-imidazo[4,5-c]pyridin-1-yl)-1-methylcyclopentyl)carbamate]	< 6.00	≥ 8.00
[2H]C([2H])([2H])n1c(=O)n([C@@H]2CC[C@](C)(NC(C)=O)C2)c2cc(Nc3ccc4c(n3)c(-c3cnn(C(F)(F)F)c3)nn4CC(C)(C)O)ncc21 [Example 129, N-((1S,3R)-3-(6-((1-(2-Hydroxy-2-methylpropyl)-3-(1-(trifluoromethyl)-1H-pyrazol-4-yl)-1H-pyrazolo[4,3-b]pyridin-5-yl)amino)-3-(methyl-d3)-2-oxo-2,3-dihydro-1H-imidazo[4,5-c]pyridin-1-yl)-1-methylcyclopentyl)acetamide]	< 6.00	≥ 8.00
[2H]C1(NC(=O)OC)CC[C@@H](n2c(=O)n(C([2H])([2H])[2H])c3cnc(Nc4cc(C(C)(C)O)c5[nH]cc(-c6cnn(C(F)(F)F)c6)c5n4)cc32)C1 (stereo partly drawn) [Example 130, Methyl ((3R)-3-(6-((7-(2-hydroxypropan-2-yl)-3-(1-(trifluoromethyl)-1H-pyrazol-4-yl)-1H-pyrrolo[3,2-b]pyridin-5-yl)amino)-3-(methyl-d3)-2-oxo-2,3-dihydro-1H-imidazo[4,5-c]pyridin-1-yl)cyclopentyl-1-d)carbamate]	< 6.00	≥ 8.00
[2H]C1(NC(=O)OC)CC[C@@H](n2c(=O)n(C([2H])([2H])[2H])c3cnc(Nc4cc(C(C)(C)O)c5ccn(-c6cnn(C(F)(F)F)c6)c5n4)cc32)C1 (stereo partly drawn) [Example 131, Methyl ((3R)-3-(6-((4-(2-hydroxypropan-2-yl)-1-(1-(trifluoromethyl)-1H-pyrazol-4-yl)-1H-pyrrolo[2,3-b]pyridin-6-yl)amino)-3-(methyl-d3)-2-oxo-2,3-dihydro-1H-imidazo[4,5-c]pyridin-1-yl)cyclopentyl-1-d)carbamate]	< 6.00	≥ 8.00
[2H]C1(NC(=O)OC)CC[C@@H](n2c(=O)n(C([2H])([2H])[2H])c3cnc(Nc4ccc5c(n4)c(-c4cnn(C(F)(F)F)c4)nn5C4CCOCC4)cc32)C1 (stereo partly drawn) [Example 132, Methyl ((3R)-3-(3-(methyl-d3)-2-oxo-6-((1-(tetrahydro-2H-pyran-4-yl)-3-(1-(trifluoromethyl)-1H-pyrazol-4-yl)-1H-pyrazolo[4,3-b]pyridin-5-yl)amino)-2,3-dihydro-1H-imidazo[4,5-c]pyridin-1-yl)cyclopentyl-1-d)carbamate]	< 6.00	≥ 8.00
[2H]C1(NC(=O)OC)CC[C@@H](n2c(=O)n(C([2H])([2H])[2H])c3cnc(Nc4ccc5c(n4)c(-c4cnn(C(F)(F)F)c4)nn5CC4(C#N)CC4)cc32)C1 (stereo partly drawn) [Example 133, Methyl ((3R)-3-(6-((1-((1-cyanocyclopropyl)methyl)-3-(1-(trifluoromethyl)-1H-pyrazol-4-yl)-1H-pyrazolo[4,3-b]pyridin-5-yl)amino)-3-(methyl-d3)-2-oxo-2,3-dihydro-1H-imidazo[4,5-c]pyridin-1-yl)cyclopentyl-1-d)carbamate]	< 6.00	≥ 8.00
[2H]C1(NC(=O)OC)CC[C@@H](n2c(=O)n(C([2H])([2H])[2H])c3cnc(Nc4ccc5nn(CC6(C#N)CC6)c(-c6cnn(C(F)(F)F)c6)c5n4)cc32)C1 (stereo partly drawn) [Example 134, Methyl ((3R)-3-(6-((2-((1-cyanocyclopropyl)methyl)-3-(1-(trifluoromethyl)-1H-pyrazol-4-yl)-2H-pyrazolo[4,3-b]pyridin-5-yl)amino)-3-(methyl-d3)-2-oxo-2,3-dihydro-1H-imidazo[4,5-c]pyridin-1-yl)cyclopentyl-1-d)carbamate]	< 6.00	≥ 8.00
[2H]C([2H])([2H])n1c(=O)n([C@@H]2CC[C@](C)(NC(C)=O)C2)c2cc(Nc3cc(C(C)(C)O)cc(-c4ncc(Cl)s4)n3)ncc21 [Example 136, N-((1S,3R)-3-(6-((6-(5-Chlorothiazol-2-yl)-4-(2-hydroxypropan-2-yl)pyridin-2-yl)amino)-3-(methyl-d3)-2-oxo-2,3-dihydro-1H-imidazo[4,5-c]pyridin-1-yl)-1-methylcyclopentyl)acetamide]	< 6.00	≥ 8.00
[2H]C([2H])([2H])NC(=O)C12CCC(n3c(=O)n(C([2H])([2H])[2H])c4cnc(Nc5cc(C(C)(C)O)cc(-c6ncc(C(F)(F)F)s6)n5)cc43)(CC1)CC2 [Example 137, 4-(6-((4-(2-Hydroxypropan-2-yl)-6-(5-(trifluoromethyl)thiazol-2-yl)pyridin-2-yl)amino)-3-(methyl-d3)-2-oxo-2,3-dihydro-1H-imidazo[4,5-c]pyridin-1-yl)-N-(methyl-d3)bicyclo[2.2.2]octane-1-carboxamide]	< 6.00	≥ 8.00
[2H]C([2H])([2H])n1c(=O)n(C23CCC(C(=O)NC4CC4)(CC2)CC3)c2cc(Nc3cc(C(C)(C)O)cc(-c4ncc(C(F)(F)F)s4)n3)ncc21 [Example 138, N-Cyclopropyl-4-(6-((4-(2-hydroxypropan-2-yl)-6-(5-(trifluoromethyl)thiazol-2-yl)pyridin-2-yl)amino)-3-(methyl-d3)-2-oxo-2,3-dihydro-1H-imidazo[4,5-c]pyridin-1-yl)bicyclo[2.2.2]octane-1-carboxamide]	< 6.00	≥ 8.00
[2H]C([2H])([2H])n1c(=O)n(C23CCC(C(N)=O)(CC2)CC3)c2cc(Nc3cc(C(C)(C)O)cc(-c4ncc(C(F)(F)F)s4)n3)ncc21 [Example 139, 4-(6-((4-(2-Hydroxypropan-2-yl)-6-(5-(trifluoromethyl)thiazol-2-yl)pyridin-2-yl)amino)-3-(methyl-d3)-2-oxo-2,3-dihydro-1H-imidazo[4,5-c]pyridin-1-yl)bicyclo[2.2.2]octane-1-carboxamide]	< 6.00	≥ 8.00
[2H]C([2H])([2H])n1c(=O)n(C23CCC(NC(C)=O)(CC2)CC3)c2cc(Nc3cc(C(C)(C)O)cc(-c4ncc(C(F)(F)F)s4)n3)ncc21 [Example 140, N-(4-(6-((4-(2-Hydroxypropan-2-yl)-6-(5-(trifluoromethyl)thiazol-2-yl)pyridin-2-yl)amino)-3-(methyl-d3)-2-oxo-2,3-dihydro-1H-imidazo[4,5-c]pyridin-1-yl)bicyclo[2.2.2]octan-1-yl)acetamide]	< 6.00	≥ 8.00
